Experimental data as given in patent US20080039442A1, “Compounds With Kv4 Ion Channel Activity” (Devgen NV, priority 2004, published 2008).
Like-named read-outs stand apart in the source and are kept apart here.

Legend:
human Kv4.3 = molecular target: T1, human Kv4.3 (Homo sapiens, UniProt Q9UK17); assay: Electropharyngeogram (EPG) analysis of dissected pharynxes of transgenic C. elegans strain UG1755; type: ex vivo, transgenic C. elegans expressing human Kv4.3
T1 construct: expressed in transfected cells; host or cells: transgenic C. elegans strain UG1755 (plasmid pGV8 integrated; expression in the pharynx)
T1 sequence (Q9UK17 1-655): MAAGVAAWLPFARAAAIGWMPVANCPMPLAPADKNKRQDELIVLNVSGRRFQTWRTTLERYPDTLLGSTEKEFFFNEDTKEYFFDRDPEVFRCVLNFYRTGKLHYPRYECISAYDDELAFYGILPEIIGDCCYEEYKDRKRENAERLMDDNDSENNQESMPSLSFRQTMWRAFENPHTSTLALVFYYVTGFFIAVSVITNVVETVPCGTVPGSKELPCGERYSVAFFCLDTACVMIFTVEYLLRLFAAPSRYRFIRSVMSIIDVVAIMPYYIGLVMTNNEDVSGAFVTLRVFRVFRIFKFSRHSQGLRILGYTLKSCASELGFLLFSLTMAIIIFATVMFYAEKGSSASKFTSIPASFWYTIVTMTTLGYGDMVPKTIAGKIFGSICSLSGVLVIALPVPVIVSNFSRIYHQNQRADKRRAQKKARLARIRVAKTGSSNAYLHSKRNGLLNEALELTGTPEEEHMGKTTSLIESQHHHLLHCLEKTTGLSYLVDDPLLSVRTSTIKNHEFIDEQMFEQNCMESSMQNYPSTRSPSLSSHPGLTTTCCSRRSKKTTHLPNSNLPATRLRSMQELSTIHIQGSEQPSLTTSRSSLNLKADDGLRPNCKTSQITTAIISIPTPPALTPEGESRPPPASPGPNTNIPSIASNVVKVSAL
Procedure: The method to describe the construction of a transgenic C. elegans strain expressing human Kv4.3 has been described in WO 03/097682. Briefly, the actual used strain UG1755 has been generated by microinjection into the gonad of a wild-type strain N2 with a mix of 5 ng/μl plasmid pGV8 (human Kv4.3), 20 ng/μl pDW2821 (GFP-marker) and 40 ng/μl genomic C. elegans DNA. Transgenic animals have been isolated and submitted to integration of the extra-chromosomal array into the genome of C. elegans. A line with 50% transmission of the functional expressed human Kv4.3 has been mutagenized with gamma irradiation using a Cobalt source. About 12000 F2 animals have been singled out and their progeny has been screened for the 100% transmission of the GFP marker. Lines with 100% transmission of GFP have been considered as potentially integrated. These lines have been further tested and out-crossed with N2 strain two-times. All lines obtained have been tested for viability, GFP and human Kv4.3 expression. At the end of a selection process, UG1755 was identified as most suitable C. elegans strain amenable to high throughput screening (HTS). […] Briefly, dissected pharynxes of UG1755 C. elegans animals have been prepared and Electropharyngeograms (EPGs) have been recorded using an Axopatch-1D amplifier (Axon instruments). […] The number of ultra short EPGs (10-20 ms) and normal EPGs (100-200 ms) has been analyzed and given as ratio in percentage. […] In addition standard qRT-PCR confirmed the presence of the human Kv4.3 transgene in UG1755 as well as human Kv4.3 protein has been detected with the human Kv4.3 antibody P 0358 in the pharynx of UG1755 animals.
Introducing the human Kv4.3 channel into the C. elegans pharynx influences the C. elegans action potential in a characteristic fashion. […] The pumping end-point can be technically translated into a high-throughput read-out by the use of a pro-fluorescent dye. […] After a defined incubation period, the change of fluorescence intensity in the intestine can be measured with a plate reader.

hERG potassium channel = hERG potassium channel (Homo sapiens, UniProt Q12809); assay: Whole cell patch clamp, HEK 293 T-REx HERG cells
[1] = molecular target: T2, human Kv4.3/KChIP2.2 potassium channel (Homo sapiens, UniProt Q9UK17); assay: Whole cell patch clamp, CHO-K1 cells stably expressing Kv4.3/KChIP2.2; type: cell-based; conditions: CHO-K1, 1 μM
T2 construct: expressed in transfected cells
T2 sequence (Q9UK17 1-655): T1 sequence (Q9UK17 1-655)
T2 sequence (Q9NS61 1-270 partner): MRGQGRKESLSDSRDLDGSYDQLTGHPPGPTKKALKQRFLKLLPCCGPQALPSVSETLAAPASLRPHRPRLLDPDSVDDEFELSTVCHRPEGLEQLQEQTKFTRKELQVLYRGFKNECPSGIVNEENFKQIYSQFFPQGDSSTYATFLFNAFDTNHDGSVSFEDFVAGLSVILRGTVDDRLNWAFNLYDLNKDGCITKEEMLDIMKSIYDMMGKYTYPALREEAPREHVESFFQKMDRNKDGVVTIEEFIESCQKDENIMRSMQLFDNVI
In short: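 Whole-cell patch clamp at 20-25 °C, bath pH 7.4 with 4 mM KCl, pipette 130 mM KCl/10 mM EGTA/5 mM Na2ATP. Compound at […] (≤0.1% DMSO), n=2; pulses from −100 mV to +40 mV for 300 ms at 0.1 Hz, P/n (n=5) leak-corrected, cells with 1–50 nA currents only.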

[2] = read-out: Kv4.3 charge in %: remaining current measured after application of the compound and relative to the blank
[3] = read-out: Kv4.3 peak in %: remaining peak height measured after application of the compound and relative to the blank

Chain of hERG potassium channel (Q12809 whole entry): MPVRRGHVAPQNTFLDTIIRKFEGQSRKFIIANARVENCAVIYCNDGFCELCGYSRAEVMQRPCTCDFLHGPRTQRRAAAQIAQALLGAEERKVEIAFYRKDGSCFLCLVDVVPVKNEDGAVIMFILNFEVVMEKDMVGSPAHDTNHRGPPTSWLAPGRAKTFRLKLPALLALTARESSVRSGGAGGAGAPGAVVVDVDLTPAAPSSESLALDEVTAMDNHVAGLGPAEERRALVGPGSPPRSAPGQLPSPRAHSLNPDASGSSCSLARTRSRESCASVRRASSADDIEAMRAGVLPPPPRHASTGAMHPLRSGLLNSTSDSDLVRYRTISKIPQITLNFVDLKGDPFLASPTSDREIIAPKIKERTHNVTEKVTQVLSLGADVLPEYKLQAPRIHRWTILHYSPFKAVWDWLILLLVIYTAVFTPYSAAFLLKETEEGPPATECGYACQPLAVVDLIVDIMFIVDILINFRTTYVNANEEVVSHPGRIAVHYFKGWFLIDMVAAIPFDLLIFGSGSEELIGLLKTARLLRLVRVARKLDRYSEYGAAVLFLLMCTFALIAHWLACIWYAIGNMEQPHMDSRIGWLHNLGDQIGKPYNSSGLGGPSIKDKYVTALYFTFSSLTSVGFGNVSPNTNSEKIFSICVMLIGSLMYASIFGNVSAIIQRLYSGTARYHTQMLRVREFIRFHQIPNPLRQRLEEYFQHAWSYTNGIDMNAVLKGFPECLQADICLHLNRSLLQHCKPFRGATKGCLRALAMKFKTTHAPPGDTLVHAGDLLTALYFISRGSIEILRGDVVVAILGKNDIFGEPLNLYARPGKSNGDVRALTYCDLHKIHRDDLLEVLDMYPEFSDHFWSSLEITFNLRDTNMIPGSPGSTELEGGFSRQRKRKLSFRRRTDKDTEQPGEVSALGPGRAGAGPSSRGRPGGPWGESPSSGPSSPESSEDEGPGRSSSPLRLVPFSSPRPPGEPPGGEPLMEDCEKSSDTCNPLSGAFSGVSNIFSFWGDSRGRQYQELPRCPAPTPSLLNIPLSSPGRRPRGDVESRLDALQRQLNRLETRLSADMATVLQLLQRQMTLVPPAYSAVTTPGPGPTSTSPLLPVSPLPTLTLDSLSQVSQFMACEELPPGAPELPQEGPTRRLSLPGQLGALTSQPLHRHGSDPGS

| remaining activity at 1 µM [1, 2] | remaining activity at 1 µM [1, 3] | melting point | After Application of Compound Ratio Ultra short to Normal EPGs in % (human Kv4.3; strain UG1755, 100 μM, n = 15, before application 83 ± 13) | SMILES | ultra short action potentials of the human Kv4.3 transgenic C. elegans pharynx (result in words) (human Kv4.3) | hERG (%) (hERG potassium channel; 10 μM) | hERG (%) (hERG potassium channel; at 1 μM) |
| --- | --- | --- | --- | --- | --- | --- | --- |
|  |  |  |  | Nc1ccncc1 [4-aminopyridine] | restored to normal action potentials |  |  |
| 44% | 87% | 150.8 to 152.7 °C |  | COc1ccc(CNC(=O)c2cc3cc(Cl)ccc3n2C)c(OC)c1 [Compound 19, 5-chloro-1-methyl-1H-indole-2-carboxylic acid 2,4-dimethoxy-benzylamide] |  | 35% |  |
| 50% | 92% | 146.8 to 147.8 °C |  | COc1ccc(CNC(=O)c2sc3ccc(Cl)cc3c2C)c(OC)c1 [Compound 21] |  | 100% |  |
| 70% | 94% | 110.7 to 111.5 °C |  | COc1ccc(CNC(=O)c2oc3ccccc3c2C)c(OC)c1 [Compound 43, 3-methyl-benzofuran-2-carboxylic acid 2,4-dimethoxy-benzylamide] |  | 61% |  |
| 45% | 80% | 76.9 to 77.3 °C |  | O=C(OCc1ccccc1)c1cc2cc(Cl)ccc2o1 [Compound 44, 5-chloro-benzofuran-2-carboxylic benzyl ester] |  | 28% |  |
| 64% | 91% | 144 to 145.9 °C |  | O=C(NCc1ccc2c(c1)OCO2)c1cc2cc(Cl)ccc2o1 [Compound 92] |  |  | 88% at 1 μM |
|  |  |  | 53 ± 24% | O=C(NCC1CCCCN1)c1cc(OCC(F)(F)F)ccc1OCC(F)(F)F (centres unmarked) [Flecainide] | restored to normal action potentials |  |  |
